Laboratory results reported in article PMC5896570 (SLAS discovery : advancing life sciences R & D, 2016).
Where “and” joins values, the source holds several entries; their conditions need not be identical. Equal entries are not always repeated. Where two headings read alike, the source gives them in different places.

Tests used:
[1] = target: T1, full-length human A2AR (Homo sapiens, UniProt P29274); type: binding; settings: for receptor-ligand complexes formed at equilibrium: saturation
[2] = target: T1, full-length human A2AR; type: binding; settings: mean ± SEM, n=16; for Kd: read-out: Kinetic KD
[3] = analytical solution, fixed α 5.6%
[4] = numerical solution, fixed KD 22 nM

T1 sequence (P29274 whole entry): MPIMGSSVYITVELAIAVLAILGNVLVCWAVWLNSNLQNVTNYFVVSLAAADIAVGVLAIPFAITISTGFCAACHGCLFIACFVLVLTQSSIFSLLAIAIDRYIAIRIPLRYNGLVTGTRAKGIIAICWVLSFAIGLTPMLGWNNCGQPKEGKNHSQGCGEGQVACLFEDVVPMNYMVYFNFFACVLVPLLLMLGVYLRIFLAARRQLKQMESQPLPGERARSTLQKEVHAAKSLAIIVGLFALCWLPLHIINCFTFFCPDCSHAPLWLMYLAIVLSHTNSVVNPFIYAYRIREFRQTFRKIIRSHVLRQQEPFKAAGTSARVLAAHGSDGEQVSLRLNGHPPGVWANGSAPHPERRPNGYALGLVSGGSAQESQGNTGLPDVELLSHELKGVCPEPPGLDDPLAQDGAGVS

Q: Which results are given for CCNC(=O)[C@H]1O[C@@H](n2cnc3c(N)nc(NCCc4ccc(CCC(=O)NCCNC(=S)Nc5ccc6c(c5)C(=O)OC6(c5ccc(O)cc5)c5ccc(O)cc5)cc4)nc32)[C@H](O)[C@@H]1O [FITC-APEC, 2-[2-[4-[2-[2-[1,3-Dihydro-1,1-bis (4-hydroxyphenyl)-3-oxo-5-isobenzofuranthioureidyl]ethylaminocarbonyl]ethyl]phenyl]ethylamino]-5′--ethylcarboxamidoadenosine]?
A: Bmax ([1]; equilibrium, Scatchard analysis, ± SEM, n=5): ~ 5.6 % of RT and 5.6 ± 0.4 % of RT; receptor-ligand complexes formed at equilibrium ([1]; receptor concentration 160 nM): 9 nM; receptor-ligand complexes formed at equilibrium ([1]; receptor concentration 480 nM): 25 nM; Residence time [2, 3]: 22 ± 1.5 min; koff [2, 3]: 7.7 ± 0.5 x10^−4 s^−1; kon [2, 3]: 1.5 ± 0.2 x10^4 (M s)^−1; Residence time [2, 4]: 47 ± 3.8 min; koff [2, 4]: 3.6 ± 0.3 x10^−4 s^−1; α (Bmax/RT) [2, 4]: 6.8 ± 1.1%; Kd [2, 3]: 73 ± 15 nM; Kd [2, 4]: 22 ± 2.3 nM
